Test results as given in patent US10392428B2, “GLP-1 derivatives and uses thereof” (Novo Nordisk A/S, priority 2014, dated 2019).
Read-outs that look alike come from different tables or passages of the source. Non-standard residues stand in square brackets, D forms with d. Residues, ends and D or L forms follow the SMILES beside them. Groups on a side chain read outwards from the residue. *: point of attachment. X1 = O=C(O)CCCCCCCCCCCCCCCCCCC(=O)NC[C@H]1CC[C@H](C(=O)N[C@@H](CCC(=O)NCCOCCOCC(=O)NCCOCCOCC(=O)NCCCC[C@H](NC(=O)COCCOCCNC(=O)COCCOCCNC(=O)CC[C@H](NC(=O)[C@H]2CC[C@H](CNC(=O)CCCCCCCCCCCCCCCCCCC(=O)O)CC2)C(=O)O)C(=O)*)C(=O)O)CC1; Desaminohistidyl = O=C(CCc1c[nH]cn1)*; AEEA = NCCOCCOCC(=O)O; Aib = CC(C)(N)C(=O)O

Assay: Pharmacokinetic study in minipigs (i.v.)
Settings: male, Göttingen, minipig, in vivo, iv
Procedure: The derivatives of Examples 12, 14, and 15 were dosed 2 nmol/kg. The derivatives of Examples 1 and 2 were dosed 15 nmol/kg.

[1] = minipigs, i.v., 2 nmol/kg, harmonic mean, read-out: Terminal half-live (converted)

Row | Compound | half-life [h] | half-life [1] [h] | further results
1 | CCCCCCCCCCCCCC(=O)NCCOCCOCC(=O)NCCCC[C@H](NC(=O)COCCOCCNC(=O)CCCCCCCCCCCCC)C(=O)NCCOCCOCC(=O)NCCCC[C@H](NC(=O)[C@H](CCCNC(=N)N)NC(=O)C(C)(C)NC(=O)[C@H](CCCCN)NC(=O)[C@@H](NC(=O)[C@H](CC(C)C)NC(=O)[C@H](Cc1c[nH]c2ccccc12)NC(=O)[C@H](C)NC(=O)[C@@H](NC(=O)[C@H](Cc1ccccc1)NC(=O)[C@H](CCC(=O)O)NC(=O)[C@H](CCCCN)NC(=O)[C@H](C)NC(=O)[C@H](C)NC(=O)[C@H](CCC(N)=O)NC(=O)C(C)(C)NC(=O)[C@H](CCC(=O)O)NC(=O)[C@H](CC(C)C)NC(=O)[C@H](Cc1ccc(O)cc1)NC(=O)[C@H](CO)NC(=O)[C@H](CO)NC(=O)[C@@H](NC(=O)[C@H](CC(=O)O)NC(=O)[C@H](CO)NC(=O)[C@@H](NC(=O)[C@H](Cc1ccccc1)NC(=O)[C@@H](NC(=O)CNC(=O)[C@H](CCC(=O)O)NC(=O)C(C)(C)NC(=O)[C@@H](N)Cc1c[nH]cn1)[C@@H](C)O)[C@@H](C)O)C(C)C)[C@@H](C)CC)C(C)C)C(N)=O [Comparative Example 2, N{Epsilon-37}-[2-[2-[2-[[(2S)-2,6-bis[[2-[2-[2-(tetradecanoylamino)ethoxy]ethoxy]acetyl]amino]hexanoyl]amino]ethoxy]ethoxy]acetyl]-[Aib8,Aib22,Aib35,Lys37]-GLP-1-(7-37)-peptide Amide, reference compound] | 3 |  | 
2 | CC[C@H](C)[C@H](NC(=O)[C@H](Cc1ccccc1)NC(=O)[C@H](CCC(=O)O)NC(=O)[C@H](CCCNC(=N)N)NC(=O)[C@H](C)NC(=O)[C@H](C)NC(=O)[C@H](CCC(N)=O)NC(=O)[C@H](CCC(=O)O)NC(=O)[C@H](CCC(=O)O)NC(=O)[C@H](CC(C)C)NC(=O)[C@H](Cc1ccc(O)cc1)NC(=O)[C@H](CO)NC(=O)[C@H](CO)NC(=O)[C@@H](NC(=O)[C@H](CC(=O)O)NC(=O)[C@H](CO)NC(=O)[C@@H](NC(=O)[C@H](Cc1ccccc1)NC(=O)[C@@H](NC(=O)CNC(=O)[C@H](CCC(=O)O)NC(=O)C(C)(C)NC(=O)CCc1cnc[nH]1)[C@@H](C)O)[C@@H](C)O)C(C)C)C(=O)N[C@@H](C)C(=O)N[C@@H](Cc1c[nH]c2ccccc12)C(=O)N[C@@H](CC(C)C)C(=O)N[C@H](C(=O)N[C@@H](CCCNC(=N)N)C(=O)NCC(=O)N[C@@H](CCCNC(=N)N)C(=O)NCC(=O)NCC(=O)N[C@@H](CCCCNC(=O)COCCOCCNC(=O)COCCOCCNC(=O)[C@H](CCCCNC(=O)COCCOCCNC(=O)COCCOCCNC(=O)CC[C@H](NC(=O)[C@H]1CC[C@H](CNC(=O)CCCCCCCCCCCCCCCCCCC(=O)O)CC1)C(=O)O)NC(=O)COCCOCCNC(=O)COCCOCCNC(=O)CC[C@H](NC(=O)[C@H]1CC[C@H](CNC(=O)CCCCCCCCCCCCCCCCCCC(=O)O)CC1)C(=O)O)C(=O)O)C(C)C [Example 7, [Imp7,Aib8,Glu22,Arg26,Arg34]-GLP-1-(7-37)-peptidyl-Gly-N{Epsilon}[2-[2-[2-[[2-[2-[2-[[(2S)-2,6-bis[[2-[2-[2-[[2-[2-[2-[[(4S)-4-carboxy-4-[[4-[(19-carboxynonadecanoylamino)methyl]cyclohexanecarbonyl]amino]butanoyl]amino]ethoxy]ethoxy]acetyl]amino]ethoxy]ethoxy]acetyl]amino]hexanoyl]amino]ethoxy]ethoxy]acetyl]amino]ethoxy]ethoxy]acetyl]Lys] (Desaminohistidyl-[Aib]EGTFTSDVSSYLEEQAAREFIAWLVRGRGGK([AEEA-AEEA-X1])-OH; C-terminus assumed) |  |  | half-life (minipigs, i.v., 5 nmol/kg, harmonic mean, read-out: Terminal half-live (converted)): 134 h
3 | CC[C@H](C)[C@H](NC(=O)[C@H](Cc1ccccc1)NC(=O)[C@H](CCC(=O)O)NC(=O)[C@H](CCCNC(=N)N)NC(=O)[C@H](C)NC(=O)[C@H](C)NC(=O)[C@H](CCC(N)=O)NC(=O)[C@H](CCC(=O)O)NC(=O)[C@H](CCC(=O)O)NC(=O)[C@H](CC(C)C)NC(=O)[C@H](Cc1ccc(O)cc1)NC(=O)[C@H](CO)NC(=O)[C@H](CO)NC(=O)[C@@H](NC(=O)[C@H](CC(=O)O)NC(=O)[C@H](CO)NC(=O)[C@@H](NC(=O)[C@H](Cc1ccccc1)NC(=O)[C@@H](NC(=O)CNC(=O)[C@H](CCC(=O)O)NC(=O)C(C)(C)NC(=O)[C@@H](N)Cc1c[nH]cn1)[C@@H](C)O)[C@@H](C)O)C(C)C)C(=O)N[C@@H](C)C(=O)N[C@@H](Cc1c[nH]c2ccccc12)C(=O)N[C@@H](CC(C)C)C(=O)N[C@H](C(=O)N[C@@H](CCCNC(=N)N)C(=O)NCC(=O)N[C@@H](CCCNC(=N)N)C(=O)N[C@@H](CCCCNC(=O)COCCOCCNC(=O)COCCOCCNC(=O)COCCOCCNC(=O)COCCOCCNC(=O)COCCOCCNC(=O)COCCOCCNC(=O)[C@H](CCCCNC(=O)CC[C@H](NC(=O)[C@H]1CC[C@H](CNC(=O)CCCCCCCCCCCCCCCCCCC(=O)O)CC1)C(=O)O)NC(=O)CC[C@H](NC(=O)[C@H]1CC[C@H](CNC(=O)CCCCCCCCCCCCCCCCCCC(=O)O)CC1)C(=O)O)C(=O)O)C(C)C [Example 12] |  | 142 | 
4 | CC[C@H](C)[C@H](NC(=O)[C@H](Cc1ccccc1)NC(=O)[C@H](CCC(=O)O)NC(=O)[C@H](CCCNC(=N)N)NC(=O)[C@H](C)NC(=O)[C@H](C)NC(=O)[C@H](CCC(N)=O)NC(=O)[C@H](CCC(=O)O)NC(=O)[C@H](CCC(=O)O)NC(=O)[C@H](CC(C)C)NC(=O)[C@H](Cc1ccc(O)cc1)NC(=O)[C@H](CO)NC(=O)[C@H](CO)NC(=O)[C@@H](NC(=O)[C@H](CC(=O)O)NC(=O)[C@H](CO)NC(=O)[C@@H](NC(=O)[C@H](Cc1ccccc1)NC(=O)[C@@H](NC(=O)CNC(=O)[C@H](CCC(=O)O)NC(=O)C(C)(C)NC(=O)[C@@H](N)Cc1c[nH]cn1)[C@@H](C)O)[C@@H](C)O)C(C)C)C(=O)N[C@@H](C)C(=O)N[C@@H](Cc1c[nH]c2ccccc12)C(=O)N[C@@H](CC(C)C)C(=O)N[C@H](C(=O)N[C@@H](CCCNC(=N)N)C(=O)NCC(=O)N[C@@H](CCCNC(=N)N)C(=O)N[C@@H](CCCCNC(=O)COCCOCCNC(=O)COCCOCCNC(=O)COCCOCCNC(=O)COCCOCCNC(=O)[C@H](CCCCNC(=O)COCCOCCNC(=O)COCCOCCNC(=O)CC[C@H](NC(=O)[C@H]1CC[C@H](CNC(=O)CCCCCCCCCCCCCCCCCCC(=O)O)CC1)C(=O)O)NC(=O)COCCOCCNC(=O)COCCOCCNC(=O)CC[C@H](NC(=O)[C@H]1CC[C@H](CNC(=O)CCCCCCCCCCCCCCCCCCC(=O)O)CC1)C(=O)O)C(=O)O)C(C)C [Example 15] |  | 142 | 
5 | CCCCCCCCCCCC(=O)NCCOCCOCC(=O)NCCCC[C@H](NC(=O)COCCOCCNC(=O)CCCCCCCCCCC)C(=O)NCCOCCOCC(=O)NCCCC[C@H](NC(=O)[C@H](CCCNC(=N)N)NC(=O)C(C)(C)NC(=O)[C@H](CCCCN)NC(=O)[C@@H](NC(=O)[C@H](CC(C)C)NC(=O)[C@H](Cc1c[nH]c2ccccc12)NC(=O)[C@H](C)NC(=O)[C@@H](NC(=O)[C@H](Cc1ccccc1)NC(=O)[C@H](CCC(=O)O)NC(=O)[C@H](CCCCN)NC(=O)[C@H](C)NC(=O)[C@H](C)NC(=O)[C@H](CCC(N)=O)NC(=O)C(C)(C)NC(=O)[C@H](CCC(=O)O)NC(=O)[C@H](CC(C)C)NC(=O)[C@H](Cc1ccc(O)cc1)NC(=O)[C@H](CO)NC(=O)[C@H](CO)NC(=O)[C@@H](NC(=O)[C@H](CC(=O)O)NC(=O)[C@H](CO)NC(=O)[C@@H](NC(=O)[C@H](Cc1ccccc1)NC(=O)[C@@H](NC(=O)CNC(=O)[C@H](CCC(=O)O)NC(=O)C(C)(C)NC(=O)[C@@H](N)Cc1c[nH]cn1)[C@@H](C)O)[C@@H](C)O)C(C)C)[C@@H](C)CC)C(C)C)C(N)=O [Comparative Example 1, N{Epsilon-37}-[2-[2-[2-[[(2S)-2,6-bis[[2-[2-[2-(dodecanoylamino)ethoxy]ethoxy]acetyl]amino]hexanoyl]amino]ethoxy]ethoxy]acetyl]-[Aib8,Aib22,Aib35,Lys37]-GLP-1-(7-37)-peptide Amide, reference compound] | 3 |  | 
6 | CC[C@H](C)[C@H](NC(=O)[C@H](Cc1ccccc1)NC(=O)[C@H](CCC(=O)O)NC(=O)[C@H](CCCNC(=N)N)NC(=O)[C@H](C)NC(=O)[C@H](C)NC(=O)[C@H](CCC(N)=O)NC(=O)[C@H](CCC(=O)O)NC(=O)[C@H](CCC(=O)O)NC(=O)[C@H](CC(C)C)NC(=O)[C@H](Cc1ccc(O)cc1)NC(=O)[C@H](CO)NC(=O)[C@H](CO)NC(=O)[C@@H](NC(=O)[C@H](CC(=O)O)NC(=O)[C@H](CO)NC(=O)[C@@H](NC(=O)[C@H](Cc1ccccc1)NC(=O)[C@@H](NC(=O)CNC(=O)[C@H](CCC(=O)O)NC(=O)C(C)(C)NC(=O)[C@@H](N)Cc1c[nH]cn1)[C@@H](C)O)[C@@H](C)O)C(C)C)C(=O)N[C@@H](C)C(=O)N[C@@H](Cc1c[nH]c2ccccc12)C(=O)N[C@@H](CC(C)C)C(=O)N[C@H](C(=O)N[C@@H](CCCNC(=N)N)C(=O)NCC(=O)N[C@@H](CCCNC(=N)N)C(=O)N[C@@H](CCCCNC(=O)COCCOCCNC(=O)COCCOCCNC(=O)[C@H](CCCCNC(=O)COCCOCCNC(=O)COCCOCCNC(=O)COCCOCCNC(=O)COCCOCCNC(=O)CC[C@H](NC(=O)[C@H]1CC[C@H](CNC(=O)CCCCCCCCCCCCCCCCCCC(=O)O)CC1)C(=O)O)NC(=O)COCCOCCNC(=O)COCCOCCNC(=O)COCCOCCNC(=O)COCCOCCNC(=O)CC[C@H](NC(=O)[C@H]1CC[C@H](CNC(=O)CCCCCCCCCCCCCCCCCCC(=O)O)CC1)C(=O)O)C(=O)O)C(C)C [Example 14] |  | 135 | 
